ChEMBL document CHEMBL1134832, “Conformational analysis of tandospirone in aqueous solution: lead evolution of potent dopamine D4 receptor ligands” (Bioorg Med Chem Lett, 2001)

Experiments:
D(2) dopamine receptor = D(2) dopamine receptor (Homo sapiens, UniProt P14416); test: Binding affinity to Dopamine receptor D2 was determined
D(4) dopamine receptor = biological target: T1, D(4) dopamine receptor (Homo sapiens, UniProt P21917); test: Binding affinity to Dopamine receptor D4 was determined
T1 sequence (P21917 whole entry): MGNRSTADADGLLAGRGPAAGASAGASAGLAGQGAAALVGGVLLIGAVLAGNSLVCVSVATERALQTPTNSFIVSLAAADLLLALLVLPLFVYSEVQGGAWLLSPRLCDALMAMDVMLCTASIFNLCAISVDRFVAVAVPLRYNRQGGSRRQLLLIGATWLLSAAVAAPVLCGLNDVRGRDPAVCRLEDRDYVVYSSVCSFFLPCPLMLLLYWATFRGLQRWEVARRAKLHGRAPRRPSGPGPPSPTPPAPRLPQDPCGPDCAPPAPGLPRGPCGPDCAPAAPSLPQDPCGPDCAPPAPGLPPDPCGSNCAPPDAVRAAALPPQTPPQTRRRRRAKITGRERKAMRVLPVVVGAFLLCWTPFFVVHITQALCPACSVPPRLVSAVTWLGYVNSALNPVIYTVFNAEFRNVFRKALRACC

[1] = biological target: T2, 5-hydroxytryptamine receptor 1A (Homo sapiens, UniProt P08908); test: Binding affinity to 5-hydroxytryptamine 1A receptor was determined
T2 sequence (P08908 whole entry): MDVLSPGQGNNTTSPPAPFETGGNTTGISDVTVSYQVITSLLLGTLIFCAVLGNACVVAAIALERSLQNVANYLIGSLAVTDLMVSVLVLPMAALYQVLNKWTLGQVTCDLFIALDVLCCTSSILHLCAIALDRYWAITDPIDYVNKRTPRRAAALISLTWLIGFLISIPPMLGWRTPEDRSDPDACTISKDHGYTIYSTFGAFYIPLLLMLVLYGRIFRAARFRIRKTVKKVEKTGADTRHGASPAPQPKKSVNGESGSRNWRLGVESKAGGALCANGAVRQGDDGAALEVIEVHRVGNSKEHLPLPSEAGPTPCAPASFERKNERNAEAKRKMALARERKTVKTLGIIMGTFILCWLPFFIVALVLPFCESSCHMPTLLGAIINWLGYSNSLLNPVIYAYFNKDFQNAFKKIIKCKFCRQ

D(2) dopamine receptor, sequence (P14416 whole entry): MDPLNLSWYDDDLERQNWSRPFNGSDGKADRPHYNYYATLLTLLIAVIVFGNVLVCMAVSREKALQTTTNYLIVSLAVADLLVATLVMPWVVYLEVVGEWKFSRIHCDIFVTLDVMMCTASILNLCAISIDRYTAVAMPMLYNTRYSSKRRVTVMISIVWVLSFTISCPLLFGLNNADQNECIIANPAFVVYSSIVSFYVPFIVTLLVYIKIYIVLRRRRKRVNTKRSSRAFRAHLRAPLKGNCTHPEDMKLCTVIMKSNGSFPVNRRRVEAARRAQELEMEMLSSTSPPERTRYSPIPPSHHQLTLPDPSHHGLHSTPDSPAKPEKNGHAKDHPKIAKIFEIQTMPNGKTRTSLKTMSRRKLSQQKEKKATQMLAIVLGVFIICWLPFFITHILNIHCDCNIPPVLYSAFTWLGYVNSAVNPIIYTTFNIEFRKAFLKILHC

Row | Compound | Ki (D(2) dopamine receptor) [nM] | Ki (D(4) dopamine receptor) [nM] | Ki [1] [nM]
1 | Cc1nc(Cl)c(Sc2ccc(Cl)cc2)c(NC2CCN(Cc3ccccc3)CC2)n1 | 62 | 2.3 | 160
2 | CNc1nc(Cl)c(Sc2ccccc2)c(N2CCN(C)CC2)n1 | 188 | 250 | 460
3 | CNc1nc(Cl)c(SC)c(N2CCN(C)CC2)n1 [MEZILAMINE] | 5.4 | > 10000 | 430

Continued, values first:

Row | Ki (D(2) dopamine receptor) [nM] | Ki (D(4) dopamine receptor) [nM] | Ki [1] [nM] | Compound
4 | 62 | 260 | 1500 | Cc1nc(Cl)c(Sc2ccc(Cl)cc2)c(N2CCN(C)CC2)n1
5 | 31 | 92 | 2000 | CN1CCN(c2nc3ccccc3c(Cl)c2Sc2ccccc2)CC1
6 | 460 | 7.2 | 32 | O=C1[C@@H]2[C@H]3CC[C@H](C3)[C@@H]2C(=O)N1CCCCN1CCN(c2ncccn2)CC1 [TANDOSPIRONE]
